Experimental data published in patent US9464071B2 (priority 2010, dated 2016).
Where “and” joins values, the source holds several entries; their conditions need not be identical. Equal values may be shown once. Where a name gives a salt, the structure may show the parent alone.

Compound | melting point
COCC(O)CN(c1cc(OC)cc(OC)c1)c1ccc2ncc(-c3cnn(C(C)C)c3)nc2c1 (centres unmarked) (as salt: hydrochloric acid salt) | 110 °C
COCC(O)CN(c1cc(OC)cc(OC)c1)c1ccc2ncc(-c3cnn(C(C)C)c3)nc2c1 (single isomer, unassigned) (as salt: HCl) | 95 °C
COc1cc(OC)cc(N(C[C@@H](O)CO)c2ccc3ncc(-c4cnn(C)c4)nc3c2)c1 (single isomer, unassigned) [Compound 97] | 187.39 °C and 188 °C
COc1cc(OC)cc(N(C[C@H](O)CO)c2ccc3ncc(-c4cnn(C)c4)nc3c2)c1 (single isomer, unassigned) [Compound 98] | 186.98 °C
COc1cc(OC)cc(N(C[C@H](O)C(F)(F)F)c2ccc3ncc(-c4cnn(CCCN)c4)nc3c2)c1 (stereo in doubt) | 154 °C
COc1cc(OC)cc(N(CCO)c2ccc3ncc(-c4cn[nH]c4)nc3c2)c1 [Compound 2] | 169.26 °C and 169 °C
CNC(=O)Cn1cc(-c2cnc3ccc(N(CCO)c4cc(OC)cc(OC)c4)cc3n2)cn1 [Compound 21] | 204.45 °C and 204.5 °C
CC(C)Oc1cccc(N(CC2CC2)c2ccc3ncc(-c4cnn(C)c4)nc3c2)c1 [Compound 22] | 109 °C and 108.61 °C
COc1cc(OC)cc(N(Cc2cc(C)no2)c2ccc3ncc(-c4cnn(CCO)c4)nc3c2)c1 [Compound 23] | 134 °C
COc1cc(OCCO)cc(N(CC2CC2)c2ccc3ncc(-c4cnn(C)c4)nc3c2)c1 [Compound 24] | 80 °C
COc1cc(OCCN)cc(N(CC2CC2)c2ccc3ncc(-c4cnn(C)c4)nc3c2)c1 [Compound 32] | 80 °C
CNC(=O)Cn1cc(-c2cnc3ccc(N(CCN)c4cc(OC)cc(OC)c4)cc3n2)cn1 [Compound 34] | 174 °C and 173.67 °C
COc1cc(OC)cc(N(CC2CC2)c2ccc3ncc(-c4cnn(CC(O)CO)c4)nc3c2)c1 (centres unmarked) [Compound 37] | 154.05 °C and 154 °C
C#CCN(c1cc(OC)cc(OC)c1)c1ccc2ncc(-c3cnn(C)c3)nc2c1 [Compound 38] | 168 °C
COc1cc(OC)cc(N(CCN2C[C@H](C)C[C@H](C)C2)c2ccc3ncc(-c4cnn(C)c4)nc3c2)c1 [Compound 39] | 80 °C
COc1cc(OC)cc(N(CCCNS(C)(=O)=O)c2ccc3ncc(-c4cnn(C)c4)nc3c2)c1 [Compound 48] | 189 °C and 189.27 °C
c1ccc(N(CC2CC2)c2ccc3ncc(-c4cn[nH]c4)nc3c2)cc1 [Compound 54] | 138 °C
COc1cc(OC)cc(N(CC2CC2)c2ccc3ncc(-c4cnn(S(=O)(=O)N(C)C)c4)nc3c2)c1 [Compound 58] | 163 °C and 165 °C
COc1cc(OC)cc(N(CC(O)CO)c2ccc3ncc(-c4cnn(C)c4)nc3c2)c1 (centres unmarked) [Compound 75] | 186 °C and 186.76 °C and 187 °C
COc1cc(OC)cc(N(CC(C)(C)O)c2ccc3ncc(-c4cnn(C)c4)nc3c2)c1 [Compound 78] | 162 °C and 162.1 °C
COc1cc(OC)cc(N(C/C(C)=N/O)c2ccc3ncc(-c4cnn(C)c4)nc3c2)c1 [Compound 80] | 144 °C
COc1cc(OC)cc(N(C/C(C)=N\O)c2ccc3ncc(-c4cnn(C)c4)nc3c2)c1 [Compound 81] | 199 °C
COc1cc(OC)cc(N(C[C@@H]2C[C@H]2CO)c2ccc3ncc(-c4cnn(C)c4)nc3c2)c1 [Compound 89] | 126.66 °C and 126 °C
COc1cc(OC)cc(N(CCCN)c2ccc3ncc(-c4cnn(C)c4)nc3c2)c1 [Compound 93, N-(3,5-Dimethoxyphenyl)-N-[3-(1-methyl-1H-pyrazol-4-yl)quinoxalin-6-yl]propane-1,3-diamine] | 175.51 °C and 178 °C
COc1cc(OC)cc(N(Cc2nccn2C)c2ccc3ncc(-c4cnn(C)c4)nc3c2)c1 [Compound 101] | 186 °C
COc1cc(OC)cc(N(CCC#N)c2ccc3ncc(-c4cnn(C)c4)nc3c2)c1 [Compound 122] | 202.94 °C
COc1cc(OC)cc(N(CC(O)CN)c2ccc3ncc(-c4cnn(C)c4)nc3c2)c1 (centres unmarked) [Compound 125] | 99 °C and 99.31 °C
COc1cc(OC)cc(N(CCCN2CCCC2=O)c2ccc3ncc(-c4cnn(C)c4)nc3c2)c1 [Compound 132, 1-(3-{(3,5-Dimethoxyphenyl)[3-(1-methyl-1H-pyrazol-4-yl)quinoxalin-6-yl]amino}propyl)pyrrolidin-2-one] | 132.47 °C

The remaining lines, values ahead:

melting point | Compound
96 °C | COc1cc(OC)cc(N(CCNC(C)C)c2ccc3ncc(-c4cnn(CCCN5CCN(CCO)CC5)c4)nc3c2)c1 (as salt: HCl) [Compound 644]
149.13 °C | COc1cc(OC)cc(N(CC(O)C(F)(F)F)c2ccc3ncc(-c4cnn(C)c4)nc3c2)c1 (single isomer, unassigned) [Compound 148, (2R*)-3-{(3,5-Dimethoxyphenyl)[3-(1-methyl-1H-pyrazol-4-yl)quinoxalin-6-yl]amino}-1,1,1-trifluoropropan-2-ol]
146.61 °C | COc1cc(OC)cc(N(CC(O)C(F)(F)F)c2ccc3ncc(-c4cnn(C)c4)nc3c2)c1 (single isomer, unassigned) [Compound 149, (2S*)-3-{(3,5-Dimethoxyphenyl)[3-(1-methyl-1H-pyrazol-4-yl)quinoxalin-6-yl]amino}-1,1,1-trifluoropropan-2-ol]
126.47 °C | COc1cc(OC)cc(N(CCN2CC[C@H](C#N)C2)c2ccc3ncc(-c4cnn(C)c4)nc3c2)c1 [Compound 133, (3S)-1-(2-{(3,5-Dimethoxyphenyl)[3-(1-methyl-1H-pyrazol-4-yl)quinoxalin-6-yl]amino}ethyl)pyrrolidine-3-carbonitrile]
123.19 °C | COc1cc(OC)cc(N(CCNCCC#N)c2ccc3ncc(-c4cnn(C)c4)nc3c2)c1 [Compound 140, 3-[(2-{(3,5-Dimethoxyphenyl)[3-(1-methyl-1H-pyrazol-4-yl)quinoxalin-6-yl]amino}ethyl)amino]propanenitrile]
150 °C | COc1cc(OC)cc(N(CCC(C)(C)O)c2ccc3ncc(-c4cnn(C)c4)nc3c2)c1 [Compound 141, 4-{(3,5-Dimethoxyphenyl)[3-(1-methyl-1H-pyrazol-4-yl)quinoxalin-6-yl]amino}-2-methylbutan-2-ol]
184.72 °C | COc1cc(OC)cc(N(CCN2CCN(C(C)=O)CC2)c2ccc3ncc(-c4cnn(C)c4)nc3c2)c1 [Compound 143, N-[2-(4-Acetylpiperazin-1-yl)ethyl]-N-(3,5-dimethoxyphenyl)-3-(1-methyl-1H-pyrazol-4-yl)quinoxalin-6-amine]
163 °C | COc1cc(OC)cc(N(Cc2cnccn2)c2ccc3ncc(-c4cnn(C)c4)nc3c2)c1 [Compound 146, N-(3,5-Dimethoxyphenyl)-3-(1-methyl-1H-pyrazol-4-yl)-N-(pyrazin-2-ylmethyl)quinoxalin-6-amine]
166.2 °C | Cn1cc(-c2ccc3ncc(N(CC4CC4)c4cccc(OC(F)F)c4)nc3c2)cn1 [Compound 209]
145.81 °C | COc1cc(OC)cc(N(CC2CC2)c2ccc3ncc(-c4cnn(CC(=O)N(C)C)c4)nc3c2)c1 [Compound 212]
132 °C | COc1cc(C)cc(N(CC2CC2)c2ccc3ncc(-c4cnn(C)c4)nc3c2)c1 [Compound 228]
106.81 °C | COc1cc(OC)cc(N(CC2CC2)c2ccc3ncc(-c4cnn(CCCNCCS(C)(=O)=O)c4)nc3c2)c1 [Compound 231]
133.66 °C | COc1cc(OC)cc(N(CCO)c2ccc3ncc(-c4cnn(CCCN)c4)nc3c2)c1 [Compound 238]
196.25 °C | COc1cc(OC)cc(N(CCCC#N)c2ccc3ncc(-c4cnn(C)c4)nc3c2)c1 [Compound 242]
130.64 °C | COc1cc(OC)cc(N(CCNS(C)(=O)=O)c2ccc3ncc(-c4cnn(C)c4)nc3c2)c1 [Compound 262]
168.45 °C | COc1cc(OC)cc(N(Cc2csc(C)n2)c2ccc3ncc(-c4cnn(C)c4)nc3c2)c1 [Compound 263]

melting point | Compound
155.79 °C | COc1cc(OC(C)C)cc(N(CC2CC2)c2ccc3ncc(-c4cnn(C)c4)nc3c2)c1 [Compound 269]
181.91 °C | COc1cc(OC)cc(N(CC2CC2)c2ccc3ncc(-c4cnn(CCNS(C)(=O)=O)c4)nc3c2)c1 [Compound 271]
155.31 °C | COc1cc(OC)cc(N(CCCN2CCCC2)c2ccc3ncc(-c4cnn(CCS(C)(=O)=O)c4)nc3c2)c1 [Compound 295]
201 °C | COc1cc(OC)cc(N(CCN2CCOCC2)c2ccc3ncc(-c4cnn(C)c4)nc3c2)c1 [Compound 299]
262.42 °C | CNC(=O)c1cc(OC)cc(N(CC2CC2)c2ccc3ncc(-c4cn[nH]c4)nc3c2)c1 [Compound 311]
176 °C and 176.49 °C | CNC(=O)Cn1cc(-c2cnc3ccc(N(CCCO)c4cc(OC)cc(OC)c4)cc3n2)cn1 [Compound 313]
139 °C | COc1cc(F)cc(N(CCO)c2ccc3ncc(-c4cnn(CCO)c4)nc3c2)c1 [Compound 315]
158.73 °C | COc1cc(OC)cc(N(CCCNS(=O)(=O)N(C)C)c2ccc3ncc(-c4cnn(C)c4)nc3c2)c1 [Compound 316]
166.37 °C | COc1cc(OC)cc(N(Cc2ccc(Cl)s2)c2ccc3ncc(-c4cn[nH]c4)nc3c2)c1 [Compound 323]
122.79 °C | CCS(=O)(=O)NCCN(c1cc(OC)cc(OC)c1)c1ccc2ncc(-c3cnn(C)c3)nc2c1 [Compound 335]
198.91 °C | COc1cc(OC)cc(N(CCCN)c2ccc3ncc(-c4cn[nH]c4)nc3c2)c1 [Compound 338]
184.2 °C | COc1cc(OC)cc(N(Cc2ccc(Cl)s2)c2ccc3ncc(-c4cnn(CCO)c4)nc3c2)c1 [Compound 340]
80 °C | CCOC(=O)C1CCN(CCN(c2cc(OC)cc(OC)c2)c2ccc3ncc(-c4cnn(C)c4)nc3c2)CC1 [Compound 343]
154.94 °C | COc1cc(OC)cc(N(CC2CCOCC2)c2ccc3ncc(-c4cnn(C)c4)nc3c2)c1 [Compound 356]
206.48 °C | COc1cc(OC)cc(N(CC(O)CN2CCC(F)(F)C2)c2ccc3ncc(-c4cnn(C)c4)nc3c2)c1 (centres unmarked) [Compound 374]
